Like-named read-outs stand apart in the source and are kept apart here.
Columns and labels:
[1] = system: L. amazonensis promastigote; test: Antipromastigote assay (resazurin fluorescence); format: cell-based, Leishmania amazonensis; settings: promastigotes, 72 h at 26 °C
Method: The fluorescence was measured using a Spectra Max GEMINI XPS spectrofluorometer (Molecular Devices, Silicon Valley, CA, USA) at excitation and emission wavelengths of 560 nm and 590 nm, respectively.

[2] = system: L. infantum amastigote; settings: cited from earlier work
[3] = system: L. donovani amastigote; settings: cited from earlier work
[4] = system: Leishmania amazonensis amastigotes; set-up: method as in PMID 28966275; settings: read-out: IC50 (amastigote); cited from earlier work
[5] = system: L. amazonensis intracellular amastigotes; test: Antiamastigote assay in infected peritoneal macrophages (infection index); format: cell-based; settings: Leishmania amazonensis, Peritoneal macrophage, 72 h
Method: Resident macrophages from BALB/c mice were obtained by peritoneal lavage with 5 mL of cold RPMI medium. The cell suspension was adjusted to a 2 × 10^6 cells/mL concentration and plated in LAB-TEK chambers. After 1 h, the cultures were washed with phosphate-buffered saline at 37 °C to remove non-adherent cells. The remaining cells were incubated at 37 °C/5% CO2 with promastigotes of L. amazonensis at a ratio of 3:1. After 3 h, the chambers were rewashed to remove free parasites. […] For G2, we first tested only at a concentration of 10 µM, and derivatives with inhibition above 60% were evaluated using the dose–response curve. The antiamastigote activity was evaluated microscopically after staining the chambers with the Instant Prov hematological dye system (Newprov, Curitiba, Brazil); at least 100 macrophages were counted per sample. The results were expressed as the infection index (IF) using the following formula: IF = % infected cells X (number of amastigotes/total macrophages). The IC50 value was determined by nonlinear regression using Graph Pad Prism 9.0.

[6] = Toxicity assay in murine macrophages (resazurin); format: cell-based; settings: BALB/c, mouse, mouse peritoneal macrophages
Method: Mouse peritoneal macrophages (2 × 10^6 cells/mL) in 96-well plates were treated with different concentrations of thiourea compounds (G1: 0–400 µM and G2: 0–125 µM) for 72 h at 37 °C/5% CO2. After removing the supernatant, viable cells were quantified by adding resazurin in phosphate-buffered saline, a final concentration of 50 µM, and then the samples were incubated for an additional 3 h. The fluorescence was measured using a Spectra Max GEMINI XPS spectrofluorometer (Molecular Devices, Silicon Valley, CA, USA) at excitation and emission wavelengths of 560 nm and 590 nm, respectively. The percentage of viable cells was calculated relative to the control cells. The cytotoxic concentrations lethal to 50% of the cells (CC50) were obtained by nonlinear regression of the sigmoid growth curves using the Graph Pad Prism 9.0 software.

[7] = system: Leishmania major promastigotes; set-up: method as in PMID 36001225; settings: after 48 h (text b28); cited from earlier work
[8] = system: L. amazonensis promastigotes; set-up: method as in doi:10.5897/JMA2013.0261; settings: L. amazonensis promastigotes (text b27); cited from earlier work
[9] = system: Leishmania infantum amastigotes; set-up: method as in PMID 30782984; settings: cited from earlier work
[10] = system: L. amazonensis promastigote; set-up: method as in PMID 28966275; settings: cited from earlier work
[11] = Leishmania amazonensis, 72 h, G2 piperazine thioureas
[12] = Leishmania amazonensis, 72 h, G1 thioureas, maximum concentration tested 100 µM
[13] = G1 thioureas, maximum concentration tested 100 µM
[14] = G1 thioureas, maximum concentration tested 25 µM
[15] = G2 piperazine thioureas, maximum concentration tested 10 µM, unit from footnote
[16] = G2 piperazine thioureas, 0–125 µM

COc1ccc(CN2CCN(C(=S)NCCc3ccccc3)CC2)c(OC)c1OC [Thiourea 5o]
IC50 [1, 11]: > 128 µM

CCCCNC(=S)Nc1ccccc1 [Thiourea 3t]
IC50 [1, 12]: 60 ± 6.4 µM

S=C(Nc1ccccc1)N1CCN(c2nc3ccccc3[nH]2)CC1 [Thiourea 5p]
IC50 [1, 11]: > 128 µM

CN(C[C@H](O)[C@@H](O)[C@H](O)[C@H](O)CO)C(=S)NCc1ccccc1 [Thiourea 3w]
IC50 [1, 12]: > 100 µM

S=C(NCCc1ccccc1)N1CCOCC1 [Thiourea 3c]
IC50 [1, 12]: > 100 µM

COc1cc(NC(=S)NCCc2ccccc2)cc(OC)c1OC [Thiourea 3m]
IC50 [1, 12]: > 100 µM

COc1cc(NC(=S)NCCc2ccccc2)cc(OC)c1 [Thiourea 3l]
IC50 [1, 12]: > 100 µM

CC(C)Oc1cc(C(=O)Nc2cc(-c3ccccn3)n[nH]2)cc(C(=O)N2CCCC2)c1 [Compound 6]
IC50 [2]: > 42.4 µM
IC50 [3]: ≥ 10.9 µM

S=C(Nc1ccccc1)N1CCN(c2ccccc2Cl)CC1 [Thiourea 5j]
IC50 [1, 11]: > 128 µM

O=C(C1CCCO1)N1CCN(C(=S)NCc2ccccc2)CC1 (stereo not shown) [Thiourea 5b]
IC50 [1, 11]: 77.5 ± 4.5 µM

COc1ccc(NC(=S)NCc2ccccc2)cc1OC [Thiourea 3i]
IC50 [1, 12]: > 100 µM

COc1cc(NC(=S)N2CCN(Cc3ccc(OC)c(OC)c3OC)CC2)cc(OC)c1OC [Thiourea 5v]
IC50 [1, 11]: > 128 µM

Oc1cccc(NC(=S)NCc2ccccc2)c1 [Thiourea 3v]
IC50 [1, 12]: > 100 µM

Cc1ccccc1NC(=S)NCc1ccccc1 [Thiourea 3u]
IC50 [1, 12]: 56.2 ± 4.2 µM

S=C(NCCc1ccccc1)Nc1ccccn1 [Thiourea 3f]
IC50 [1, 12]: > 100 µM

meglumine antimoniate
IC50 [4]: 212 µM

S=C(Nc1ccccc1)N1CCOCC1 [Thiourea 3a]
IC50 [1, 12]: > 100 µM

S=C(Nc1ccccc1)Nc1ccc(Br)cc1 [Thiourea 3p]
IC50 [1, 13]: 32.9 ± 9.5 µM
IC50 [1, 12]: < 50 µM
IC50 [5, 14]: 8.7 ± 1.4 µM
CC50 at 72 h ([6]; G1 thioureas, 0–400 µM): > 400 µM

S=C(NCc1ccccc1)N1CCOCC1 [Thiourea 3b]
IC50 [1, 12]: > 100 µM

S=C(NCc1ccccc1)N1CCN(C(c2ccccc2)c2ccccc2)CC1 [Thiourea 5h]
IC50 [1, 11]: 7.9 ± 1.9 µM
IC50 [5, 15]: 8.8 ± 3.5 µM
CC50 at 72 h [6, 16]: > 125 µM

O=C(C1CCCO1)N1CCN(C(=S)NCCc2ccccc2)CC1 (stereo not shown) [Thiourea 5c]
IC50 [1, 11]: > 128 µM

COc1cc(NC(=S)N2CCN(Cc3ccc4c(c3)OCO4)CC2)cc(OC)c1OC [Thiourea 5s]
IC50 [1, 11]: > 128 µM

C[C@@H]1[C@H](O)[C@@H](C)/C=C/C=C/C=C/C=C/C=C/C=C/C=C/[C@H](O[C@@H]2O[C@H](C)[C@@H](O)[C@H](N)[C@@H]2O)C[C@@H]2O[C@](O)(C[C@@H](O)C[C@@H](O)[C@H](O)CC[C@@H](O)C[C@@H](O)CC(=O)O[C@H]1C)C[C@H](O)[C@H]2C(=O)O [amphotericin B]
IC50 [7]: 0.2 ± 0.01 µM

COc1ccc(CN2CCN(C(=S)Nc3ccccc3)CC2)c(OC)c1OC [Thiourea 5m]
IC50 [1, 11]: > 128 µM

COc1ccc(NC(=S)NCCc2ccccc2)cc1OC [Thiourea 3j]
IC50 [1, 12]: > 100 µM

COc1ccc(NC(=S)NCc2ccccc2)cc1 [Thiourea 3h]
IC50 [1, 12]: 61.6 ± 6.5 µM

COc1ccc(CN2CCN(C(=S)NCc3ccccc3)CC2)c(OC)c1OC [Thiourea 5n]
IC50 [1, 11]: 42.5 ± 1.6 µM
IC50 [5, 15]: > 10 µM
CC50 at 72 h [6, 16]: 88.3 ± 5.6 µM

CCOC(=O)c1ccc(NC(N)=S)cc1 [Thiourea 9]
IC50 [8]: 45 µM

S=C(NCCc1ccccc1)N1CCN(c2ccccc2Cl)CC1 [Thiourea 5l]
IC50 [1, 11]: 28.2 ± 2.5 µM
IC50 [5, 15]: > 10 µM
CC50 at 72 h [6, 16]: 79.5 ± 19.8 µM

COc1cc(NC(=S)NCc2ccccc2)cc(OC)c1 [Thiourea 3k]
IC50 [1, 12]: > 100 µM

S=C(NCc1ccccc1)N1CCN(c2ccccc2Cl)CC1 [Thiourea 5k]
IC50 [1, 11]: 30.7 ± 3 µM
IC50 [5, 15]: > 10 µM
CC50 at 72 h [6, 16]: 68.3 ± 2.8 µM

COc1cc(NC(=S)Nc2nnc(C(F)(F)F)s2)cc(OC)c1OC [Thiourea 3a′]
IC50 [1, 12]: 77.8 ± 6.7 µM

S=C(Nc1ccccc1)Nc1ccccn1 [Thiourea 3d]
IC50 [5, 14]: 10.8 ± 2.4 µM
CC50 at 72 h ([6]; G1 thioureas, 0–400 µM): > 400 µM

S=C(NCc1ccccc1)N1CCN(Cc2ccc3c(c2)OCO3)CC1 [Thiourea 5e]
IC50 [1, 11]: 30.3 ± 4.6 µM
IC50 [5, 15]: > 10 µM
CC50 at 72 h [6, 16]: 122 ± 2.8 µM

COc1cc(NC(=S)N2CCN(C(=O)C3CCCO3)CC2)cc(OC)c1OC (stereo not shown) [Thiourea 5r]
IC50 [1, 11]: > 128 µM

S=C(Nc1ccccc1)N1CCN(Cc2ccc3c(c2)OCO3)CC1 [Thiourea 5d]
IC50 [1, 11]: 90.2 ± 2.9 µM

COc1cc(NC(=S)N2CCN(c3ccccc3Cl)CC2)cc(OC)c1OC [Thiourea 5u]
IC50 [1, 11]: > 128 µM

S=C(NCCc1ccccc1)N1CCN(Cc2ccc3c(c2)OCO3)CC1 [Thiourea 5f]
IC50 [1, 11]: > 128 µM

COc1cc(NC(=S)N2CCOCC2)cc(OC)c1OC [Thiourea 3x]
IC50 [1, 12]: > 100 µM

COc1cc(NC(=S)Nc2ccccn2)cc(OC)c1OC [Thiourea 3y]
IC50 [1, 12]: > 100 µM

S=C(NCCc1ccccc1)N1CCN(C(c2ccccc2)c2ccccc2)CC1 [Thiourea 5i]
IC50 [1, 11]: 6.9 ± 2 µM
IC50 [5, 15]: 1.8 ± 0.5 µM
CC50 at 72 h [6, 16]: > 125 µM

O=C(NNC(=S)NCc1ccccc1)c1ccccc1 [Thiourea 3o]
IC50 [1, 12]: 80.4 ± 10 µM

CCCCCCCCCCCCCCCCOP(=O)([O-])OCC[N+](C)(C)C [Miltefosine, reference compound]
IC50 [1, 12]: 6.9 ± 2.4 µM
IC50 [1, 11]: 6.9 ± 2.4 µM
IC50 [5, 14]: 7.5 ± 1.2 µM
IC50 [5, 15]: 7.5 ± 1.2 µM
IC50 [9]: 2.84 ± 0.1 µM

Cc1nnc(NC(=S)Nc2ccccc2)s1 [Thiourea 3r]
IC50 [1, 12]: 65.8 ± 8.2 µM

S=C(NCCc1ccccc1)Nc1ccc2c(c1)OCO2 [Compound 8]
IC50 [10]: 54.1 ± 6.77 µM
IC50 [4]: 70 µM

N=C(N)c1ccc(OCCCCCOc2ccc(C(=N)N)cc2)cc1 [pentamidine]
IC50 [8]: 0.46 µM

COc1ccc(NC(=S)Nc2cc(OC)c(OC)c(OC)c2)cc1OC [Thiourea 3z]
IC50 [1, 12]: > 100 µM

COc1ccc(NC(=S)Nc2ccccc2)cc1 [Thiourea 3g]
IC50 [1, 12]: > 100 µM

Cc1sc(NC(=S)NC(=O)C2CC2)nc1-c1ccccc1 [Compound 11]
IC50 [7]: 122 ± 1.41 µM

CCCCNC(=S)Nc1ccc([Se][Se]c2ccc(NC(=S)NCCCC)cc2)cc1 [Compound 10]
IC50 [9]: 2.36 ± 0.44 µM

S=C(NCCc1ccccc1)N1CCN(c2nc3ccccc3[nH]2)CC1 [Thiourea 5q]
IC50 [1, 11]: 18.8 ± 3.1 µM
IC50 [5, 15]: > 10 µM
CC50 at 72 h [6, 16]: 72.9 ± 32.2 µM

CCCCNC(=S)Nc1cc(OC)c(OC)c(OC)c1 [Thiourea 3b′]
IC50 [1, 12]: > 100 µM

COc1cc(NC(=S)N2CCN(C(c3ccccc3)c3ccccc3)CC2)cc(OC)c1OC [Thiourea 5t]
IC50 [1, 11]: 22.3 ± 1.6 µM
IC50 [5, 15]: 4.9 ± 1.2 µM
CC50 at 72 h [6, 16]: 81.3 ± 16.9 µM

S=C(Nc1ccccc1)N1CCN(C(c2ccccc2)c2ccccc2)CC1 [Thiourea 5g]
IC50 [1, 11]: 30.7 ± 3.2 µM
IC50 [5, 15]: > 10 µM
CC50 at 72 h [6, 16]: > 125 µM

S=C(NCc1ccccc1)Nc1ccccn1 [Thiourea 3e]
IC50 [1, 13]: 25.4 ± 8.3 µM
IC50 [1, 12]: < 50 µM
CC50 at 72 h ([6]; G1 thioureas, 0–400 µM): > 400 µM

S=C(NCc1ccccc1)Nc1ccc(Br)cc1 [Thiourea 3q]
IC50 [1, 13]: 44.4 ± 10.6 µM
IC50 [1, 12]: < 50 µM
IC50 [5, 14]: > 25 µM
CC50 at 72 h ([6]; G1 thioureas, 0–400 µM): > 400 µM

O=C(C1CCCO1)N1CCN(C(=S)Nc2ccccc2)CC1 (stereo not shown) [Thiourea 5a]
IC50 [1, 11]: > 128 µM

CCc1nnc(NC(=S)NCc2ccccc2)s1 [Thiourea 3s]
IC50 [1, 12]: 58.4 ± 1.9 µM

Source: publication PMC11677126, “Synthesis and Structure–Activity Relationship of Thiourea Derivatives Against Leishmania amazonensis” (Pharmaceuticals, 2024)
